In publication PMC6558518 (Angewandte Chemie (International ed. in English), 2018):

Columns and labels:
HeLa cells [1] = assay: Mitochondrial membrane potential with JC-10 dye; settings: 20 μM
HeLa cells [2] = assay: MTT assay of cell viability / anti-proliferative activity; type: cell-based

Compound	increase of F520/F590 ratio above the normal value (HeLa cells [1])	inhibitor concentration at which maximum inhibition was reached (HeLa cells [2]; HeLa cells) [µM]	maximum inhibition in HeLa cell viability (HeLa cells [2]; at saturating concentrations)
p-trifluoromethoxy carbonyl cyanide phenyl hydrazone [FCCP]	up to 7 fold		
COC1=C2C[C@@H](C)C[C@H](OC)[C@H](O)[C@@H](C)/C=C(\C)[C@H](OC(N)=O)[C@@H](OC)/C=C\C=C(/C)C(=O)NC(=CC1=O)C2=O [GA, Geldanamycin]		0.3	~ 40%
